Converted amounts (≈) assume the structure as drawn.
Assays:
guinea pig ileon = assay: Relaxant activity on the guinea pig ileon; settings: Cavia porcellus, Tyrode 37° C, concentration suppressing spontaneous contractions and relaxing the organ, read-out: Relaxant action
Procedure: B. Relaxant Activity on the guinea pig ileon
The relaxant effect of the test compounds was determined on guinea pig ileon using the procedure of Test A above. The terminal portion of the guinea pig ileon was removed and washed with Tyrode solution at 37° C. It was then suspended in an bath of oxygenated Tyrode liquid at 37° C and the contractions were registered on a collector attached to a Sanborn polygraph. The test product was added to bath of the organ with a low volume and the concentration which caused a suppression of spontaneous contractions and relaxed the organ, cuasing a lowering of the line of the base was considered to be relaxant.

prostaglandin E2 = assay: Antagonistic activity to the contracturant effect of prostaglandin E2 (isolated rat colon, method of Magnus); settings: Krebs 37° C, product added 30 seconds before PGE2 (5 to 10 ng/ml), 50% inhibition of contractions
Procedure: A. Antagonistic activity to the contracturant effect of prostaglandin E2
The antagonistic effect of the test compounds to the contracturant activity of prostaglandin E2 was determined by the method of Magnus wherein a portion of the colon adjacent to the caecum was removed from a rat and was washed with a Krebs solution at 37° C. The colon was then suspended in a bath of oxygenated Krebs liquid kept at 37° C and the contactions of the organ were registered with a collector attached to a Sanborn polygraph. The organ was first standarized with prostaglandin E2 to determine the concentration necessary to obtain a significant contraction (5 to 10 ng/ml). The antagonistic product was added to the bath 30 seconds before the standard dose of PGE2 and the intensity of the contraction was measured. The concentration of product which inhibited by 50% the contractions provoked by PGE2 was determined by the straight line effect-log of the dose and the CI50 is reported in Table I.

mice = assay: Analgesic activity -- stretching provoked by acetic acid (Koster et al); type: in vivo; settings: Mus musculus, 0.25 h, oral, one half hour before intraperitoneal acetic acid, 15 minute observation, dose reducing stretchings by 50%, read-out: DA50 (the source's name)
Procedure: C. Analgesic Activity -- stretching provoked by acetic acid
The test procedure was that of Koster et al wherein an interitoneal injection of aqueous acetic acid in a concentration of 1% at a dose of 100 mg/kg caused in mice repeated movements of strectching and twisting which can persist for more than 6 hours. Analgesics prevent or lessen the syndrome. The test products were orally administered one half hour before the acetic acid injection and the mice were fasted from the day before the tests. The stretching were counted for each mouse during a 15 minute observation period beginning right after the acetic acid injection and the analgesic affect was expressed as a percentage of protection with respect to the controls.

[1] = system: prostaglandin synthetases of lungs of guinea pigs; assay: Inhibitory effect against biosynthesis of prostaglandins from arachidonic acid (Vane); type: biochemical; settings: guinea pig lung homogenate supernatant, arachidonic acid 10 μg, 30 minutes at 37° C; read-out on isolated rat colon; read-out: CI50 (the source's name)
Source text: D. Inhibitory effect against biosynthesis of prostaglandins
Synthesis of prostaglandins starting with arachidonic acid by means of prostaglandin synthetases of lungs of guinea pigs
This test used the procedure of Vane [Nature New-Biology, Vo. 231 (1971), p. 232-235] wherein the lungs of adult guinea pigs (two per series) were rapidly removed and washed with a modified, iced Bucher medium. The lung tissue was homogenized in a Turrax grinder in a minute and the homogenate was centrifuged for 20 minutes to 1200 g. The supernatant was used as a preparation of prostaglandin synthetases.
A solution of arachidonic acid in ethanol at a concentration of 10 mg/ml was diluted with a 0.2% aqueous sodium carbonate solution and was then diluted further with a modified Bucher medium to obtain a final acid concentration of 200 μg/ml. The biosynthesis inhibitors are put into aqueous on dilute alcohol (20% maximum) solutions. Tubes were prepared containing 1 ml of the prostaglandin synthetases preparation, 10 μg of arachidonic acid and 0.1 ml of inhibiting solution or, for the controls, an equal volume of water or dilute alcohol. The tubes were incubated with stirring for 30 minutes at 37° C in aerobic conditions and each test consisted of a tube containing a biosynthesis inhibitor, one biosynthesis control with incubated arachidonic acid and one control with non-incubated arachidonic acid. The latter control permitted a evaluation of amount of natural prostaglandins present in the ground lung and the results obtained with this control must therefore be taken away from the control of biosynthesis and from all the tests. The reactions are stopped by immersion in boiling water until the proteins are coagulated. The dosage of "prostaglandin like" activity was effected biologically on the isolated rat colon suspended in Krebs liquid, mixed to augment the specificity, with antagonists to other contracturant mediators susceptible to interfere. The antagonists were mepyramine, scopolamine, methysergide, phenoxybenzamine and propanolol.
A comparison of the results registered in the presence or absence of a test product permitted the calculation of the percentage of biosynthesis inhibition. The CI50 dose which inhibited by 50% the biosynthesis activity was graphically obtained by straight line representing the percent of inhibition with reference to the incubated controls against the log of the concentration in μg/ml and the results are reported in Table IV.

IC50 [1] [µM] | Structure (SMILES) | minimal effective concentration (guinea pig ileon) [µg/mL] | CI50 against PGE2 (prostaglandin E2) [µg/mL] | ED50 (mice) [mg/kg]
376 | CCCCC[C@H](O)/C=C/[C@H]1CC[C@H](O)[C@@H]1C(=O)OCC (relative stereo) [B] | 20 | – | 100
523 | CCCCCCCCCOC(=O)[C@H]1[C@@H](O)CC[C@@H]1/C=C/[C@@H](O)CCCCC (relative stereo) [D] | 10 | – | –
54 | CCCCC[C@@H](/C=C/[C@H]1CC[C@H](O)[C@@H]1C(=O)OCC)OC1CCCCO1 (relative stereo) [F] | 20 | 20 (≈ 54.3 µM) | ~100
204 | CCCCC[C@@H](/C=C/[C@H]1CC[C@@H](O)[C@@H]1C(=O)OCC)OC1CCCCO1 (relative stereo) [G] | 20 | 20 (≈ 54.3 µM) | ~100
652 | CCCCC[C@@H](/C=C/[C@H]1CC[C@@H](O)[C@@H]1C(=O)OCCC)OC1CCCCO1 (relative stereo) [M] | 5 | – | –
229 | C#C[C@@](/C=C/[C@H]1CC[C@H](O)[C@@H]1C(=O)OCC)(CCCCC)OC1CCCCO1 (relative stereo) [O] | – | – | –
382 | C#C[C@@](/C=C/[C@H]1CC[C@@H](O)[C@@H]1C(=O)OCC)(CCCCC)OC1CCCCO1 (relative stereo) [P] | 5 | – | ~100
542 | CCCCC[C@@H](/C=C/[C@H]1CC[C@@H](O)[C@H]1C(=O)OCC)OC1CCCCO1 (relative stereo) [R] | – | – | –
628 | CCCCC[C@@H](/C=C/[C@H]1CC[C@H](O)[C@@H]1C(=O)CCC)OC1CCCCO1 (relative stereo) [S] | – | – | –
503 | CCCCCC(C)(O)/C=C/[C@H]1CC[C@@H](O)[C@@H]1C(=O)OCC (some centres unmarked) [C] | 1 | – | –
604 | CCCCCC(C)(O)/C=C/[C@H]1CC[C@H](O)[C@@H]1C(=O)OCC (some centres unmarked) [E] | 5 | – | –

Further lines, the compound ahead of its results:

Structure (SMILES) | IC50 [1] [µM] | minimal effective concentration (guinea pig ileon) [µg/mL] | CI50 against PGE2 (prostaglandin E2) [µg/mL] | ED50 (mice) [mg/kg]
CCCCC[C@H](O)/C=C/[C@H]1CC[C@@H](O)[C@@H]1C(=O)OCC (relative stereo) [A] | – | 20 | 20 (≈ 70.3 µM) | –
CCCCC[C@@H](CC[C@H]1CC[C@H](O)[C@@H]1C(=O)OCC)OC1CCCCO1 (relative stereo) [H] | – | 10 | – | –
CCCCC[C@@H](/C=C/[C@H]1CC[C@H](O)[C@@H]1C(=O)OC)OC1CCCCO1 (relative stereo) [I] | – | 5 | – | –
CCCCC[C@@H](/C=C/[C@H]1CC[C@H](O)[C@@H]1C(=O)OCCC)OC1CCCCO1 (relative stereo) [J] | – | 10 | – | –
CCCCC[C@@H](CC[C@H]1CC[C@@H](O)[C@@H]1C(=O)OCC)OC1CCCCO1 (relative stereo) [K] | – | 5 | – | –
CCCCC[C@@H](/C=C/[C@H]1CC[C@@H](O)[C@@H]1C(=O)OC)OC1CCCCO1 (relative stereo) [L] | – | 5 | – | –
C#C[C@@](O)(/C=C/[C@H]1CC[C@H](O)[C@@H]1C(=O)OCC)CCCCC (relative stereo) [N] | – | 5 | – | –
C#C[C@@](/C=C/[C@H]1CC[C@H](O)[C@@H]1C(=O)OCC)(CCCCC)OC1CCCCO1 (relative stereo) [Product O, Ethyl (1RS, 2SR, 5RS, 3'SR) (1'E) 2-hydroxy-5-(3'-α-tetrahydropyranyloxy-3'-ethynyl-1'-octenyl)-cyclopentanecarboxylate] | – | 10 | – | –
CCCCC[C@@H](/C=C/[C@H]1CC[C@@H](O)[C@@H]1C(=O)CCC)OC1CCCCO1 (relative stereo) [Q] | – | 10 | – | –

— US4109009A, “Analgesic, relaxant, and anti-inflammatory cyclopentanol derivatives” (Roussel Uclaf, priority 1975, dated 1978)
